Measurements: the NIST ThermoML archive (doi:10.1016/j.jct.2008.02.020)
Numbers after ± are expanded uncertainties.

Settings: Liquid, Buoyancy - hydrostatic balance with magnetic suspension - one sinker

Compound: CCCCCCCCC [nonane]
- mass density (233.15 K, 101.46 kPa): 763.962 ± 0.24 kg/m3
- mass density (233.15 K, 1176.1 kPa): 764.563 ± 0.24 kg/m3
- mass density (233.15 K, 2178.2 kPa): 765.126 ± 0.24 kg/m3
- mass density (233.15 K, 4167 kPa): 766.231 ± 0.24 kg/m3
- mass density (233.15 K, 5936.5 kPa): 767.203 ± 0.24 kg/m3
- mass density (233.15 K, 8144.5 kPa): 768.395 ± 0.24 kg/m3
- mass density (233.15 K, 10066 kPa): 769.42 ± 0.24 kg/m3
- mass density (233.15 K, 12148 kPa): 770.516 ± 0.25 kg/m3
- mass density (233.15 K, 14076 kPa): 771.516 ± 0.25 kg/m3
- mass density (233.15 K, 16087 kPa): 772.548 ± 0.25 kg/m3
- mass density (233.15 K, 18067 kPa): 773.551 ± 0.25 kg/m3
- mass density (233.15 K, 19984 kPa): 774.511 ± 0.25 kg/m3
- mass density (233.15 K, 21990 kPa): 775.502 ± 0.25 kg/m3
- mass density (233.15 K, 24044 kPa): 776.506 ± 0.25 kg/m3
- mass density (233.15 K, 25990 kPa): 777.446 ± 0.25 kg/m3
- mass density (233.15 K, 27927 kPa): 778.373 ± 0.25 kg/m3
- mass density (233.15 K, 29906 kPa): 779.308 ± 0.25 kg/m3
- mass density (253.15 K, 101.82 kPa): 748.678 ± 0.24 kg/m3
- mass density (253.15 K, 1135.3 kPa): 749.335 ± 0.24 kg/m3
- mass density (253.15 K, 2178.6 kPa): 749.992 ± 0.24 kg/m3
- mass density (253.15 K, 3967.8 kPa): 751.107 ± 0.24 kg/m3
- mass density (253.15 K, 6147.5 kPa): 752.446 ± 0.24 kg/m3
- mass density (253.15 K, 8138 kPa): 753.648 ± 0.24 kg/m3
- mass density (253.15 K, 10112 kPa): 754.82 ± 0.24 kg/m3
- mass density (253.15 K, 12111 kPa): 755.991 ± 0.24 kg/m3
- mass density (253.15 K, 14130 kPa): 757.156 ± 0.24 kg/m3
- mass density (253.15 K, 16140 kPa): 758.299 ± 0.24 kg/m3
- mass density (253.15 K, 18106 kPa): 759.398 ± 0.24 kg/m3
- mass density (253.15 K, 20064 kPa): 760.484 ± 0.24 kg/m3
- mass density (253.15 K, 22026 kPa): 761.552 ± 0.24 kg/m3
- mass density (253.15 K, 23955 kPa): 762.59 ± 0.24 kg/m3
- mass density (253.15 K, 25972 kPa): 763.661 ± 0.24 kg/m3
- mass density (253.15 K, 27913 kPa): 764.677 ± 0.24 kg/m3
- mass density (253.15 K, 29967 kPa): 765.739 ± 0.24 kg/m3
- mass density (273.15 K, 102.52 kPa): 733.389 ± 0.23 kg/m3
- mass density (273.15 K, 1156.8 kPa): 734.143 ± 0.23 kg/m3
- mass density (273.15 K, 2138 kPa): 734.842 ± 0.23 kg/m3
- mass density (273.15 K, 4026 kPa): 736.166 ± 0.23 kg/m3
- mass density (273.15 K, 6169.4 kPa): 737.644 ± 0.23 kg/m3
- mass density (273.15 K, 8161.4 kPa): 738.99 ± 0.23 kg/m3
- mass density (273.15 K, 10122 kPa): 740.29 ± 0.23 kg/m3
- mass density (273.15 K, 12106 kPa): 741.586 ± 0.23 kg/m3
- mass density (273.15 K, 14101 kPa): 742.864 ± 0.23 kg/m3
- mass density (273.15 K, 16067 kPa): 744.108 ± 0.23 kg/m3
- mass density (273.15 K, 18074 kPa): 745.354 ± 0.23 kg/m3
- mass density (273.15 K, 20036 kPa): 746.555 ± 0.24 kg/m3
- mass density (273.15 K, 22000 kPa): 747.737 ± 0.24 kg/m3
- mass density (273.15 K, 23996 kPa): 748.923 ± 0.24 kg/m3
- mass density (273.15 K, 25994 kPa): 750.093 ± 0.24 kg/m3
- mass density (273.15 K, 27982 kPa): 751.238 ± 0.24 kg/m3
- mass density (273.15 K, 29876 kPa): 752.316 ± 0.24 kg/m3
- mass density (293.15 K, 101.69 kPa): 717.968 ± 0.22 kg/m3
- mass density (293.15 K, 1184.3 kPa): 718.847 ± 0.22 kg/m3
- mass density (293.15 K, 2129.2 kPa): 719.604 ± 0.22 kg/m3
- mass density (293.15 K, 3960.5 kPa): 721.055 ± 0.23 kg/m3
- mass density (293.15 K, 6115.4 kPa): 722.729 ± 0.23 kg/m3
- mass density (293.15 K, 7981.6 kPa): 724.145 ± 0.23 kg/m3
- mass density (293.15 K, 10015 kPa): 725.663 ± 0.23 kg/m3
- mass density (293.15 K, 12149 kPa): 727.214 ± 0.23 kg/m3
- mass density (293.15 K, 13981 kPa): 728.526 ± 0.23 kg/m3
- mass density (293.15 K, 16170 kPa): 730.062 ± 0.23 kg/m3
- mass density (293.15 K, 17943 kPa): 731.285 ± 0.23 kg/m3
- mass density (293.15 K, 20200 kPa): 732.813 ± 0.23 kg/m3
- mass density (293.15 K, 22156 kPa): 734.115 ± 0.23 kg/m3
- mass density (293.15 K, 24158 kPa): 735.421 ± 0.23 kg/m3
- mass density (293.15 K, 26136 kPa): 736.696 ± 0.23 kg/m3
- mass density (293.15 K, 28126 kPa): 737.958 ± 0.23 kg/m3
- mass density (293.15 K, 29978 kPa): 739.115 ± 0.23 kg/m3
- mass density (313.15 K, 98.73 kPa): 702.339 ± 0.22 kg/m3
- mass density (313.15 K, 1168.7 kPa): 703.323 ± 0.22 kg/m3
- mass density (313.15 K, 2131.9 kPa): 704.205 ± 0.22 kg/m3
- mass density (313.15 K, 3967.4 kPa): 705.852 ± 0.22 kg/m3
- mass density (313.15 K, 6162.3 kPa): 707.777 ± 0.22 kg/m3
- mass density (313.15 K, 8113.9 kPa): 709.449 ± 0.22 kg/m3
- mass density (313.15 K, 10024 kPa): 711.038 ± 0.22 kg/m3
- mass density (313.15 K, 12173 kPa): 712.791 ± 0.22 kg/m3
- mass density (313.15 K, 14170 kPa): 714.384 ± 0.22 kg/m3
- mass density (313.15 K, 16194 kPa): 715.964 ± 0.22 kg/m3
- mass density (313.15 K, 17956 kPa): 717.315 ± 0.22 kg/m3
- mass density (313.15 K, 20057 kPa): 718.889 ± 0.22 kg/m3
- mass density (313.15 K, 22191 kPa): 720.459 ± 0.23 kg/m3
- mass density (313.15 K, 24136 kPa): 721.862 ± 0.23 kg/m3
- mass density (313.15 K, 26139 kPa): 723.282 ± 0.23 kg/m3
- mass density (313.15 K, 28073 kPa): 724.629 ± 0.23 kg/m3
- mass density (313.15 K, 29972 kPa): 725.932 ± 0.23 kg/m3
- mass density (333.15 K, 102.84 kPa): 686.431 ± 0.21 kg/m3
- mass density (333.15 K, 1137.5 kPa): 687.521 ± 0.21 kg/m3
- mass density (333.15 K, 2113.9 kPa): 688.539 ± 0.21 kg/m3
- mass density (333.15 K, 4162.7 kPa): 690.632 ± 0.21 kg/m3
- mass density (333.15 K, 6145.3 kPa): 692.599 ± 0.21 kg/m3
- mass density (333.15 K, 8151.9 kPa): 694.535 ± 0.21 kg/m3
- mass density (333.15 K, 10024 kPa): 696.296 ± 0.21 kg/m3
- mass density (333.15 K, 12114 kPa): 698.208 ± 0.22 kg/m3
- mass density (333.15 K, 14127 kPa): 700.005 ± 0.22 kg/m3
- mass density (333.15 K, 15989 kPa): 701.627 ± 0.22 kg/m3
- mass density (333.15 K, 18027 kPa): 703.362 ± 0.22 kg/m3
- mass density (333.15 K, 19954 kPa): 704.977 ± 0.22 kg/m3
- mass density (333.15 K, 22112 kPa): 706.723 ± 0.22 kg/m3
- mass density (333.15 K, 24080 kPa): 708.292 ± 0.22 kg/m3
- mass density (333.15 K, 26038 kPa): 709.821 ± 0.22 kg/m3
- mass density (333.15 K, 28054 kPa): 711.366 ± 0.22 kg/m3
- mass density (333.15 K, 29912 kPa): 712.772 ± 0.22 kg/m3
- mass density (353.15 K, 97.13 kPa): 671.217 ± 0.2 kg/m3
- mass density (353.15 K, 2136.7 kPa): 672.617 ± 0.21 kg/m3
- mass density (353.15 K, 6141.9 kPa): 677.222 ± 0.21 kg/m3
- mass density (353.15 K, 8110.9 kPa): 679.378 ± 0.21 kg/m3
- mass density (353.15 K, 10054 kPa): 681.439 ± 0.21 kg/m3
- mass density (353.15 K, 12124 kPa): 683.57 ± 0.21 kg/m3
- mass density (353.15 K, 14144 kPa): 685.589 ± 0.21 kg/m3
- mass density (353.15 K, 15989 kPa): 687.385 ± 0.21 kg/m3
- mass density (353.15 K, 18011 kPa): 689.305 ± 0.21 kg/m3
- mass density (353.15 K, 20036 kPa): 691.174 ± 0.21 kg/m3
- mass density (353.15 K, 21991 kPa): 692.938 ± 0.21 kg/m3
- mass density (353.15 K, 23965 kPa): 694.678 ± 0.21 kg/m3
- mass density (353.15 K, 25968 kPa): 696.403 ± 0.21 kg/m3
- mass density (353.15 K, 27955 kPa): 698.078 ± 0.22 kg/m3
- mass density (353.15 K, 29939 kPa): 699.718 ± 0.22 kg/m3
- mass density (373.15 K, 102.37 kPa): 653.427 ± 0.2 kg/m3
- mass density (373.15 K, 1227.9 kPa): 655.018 ± 0.2 kg/m3
- mass density (373.15 K, 2148.9 kPa): 656.298 ± 0.2 kg/m3
- mass density (373.15 K, 4131.5 kPa): 658.968 ± 0.2 kg/m3
- mass density (373.15 K, 6127 kPa): 661.551 ± 0.2 kg/m3
- mass density (373.15 K, 8138.8 kPa): 664.058 ± 0.2 kg/m3
- mass density (373.15 K, 10022 kPa): 666.323 ± 0.2 kg/m3
- mass density (373.15 K, 12112 kPa): 668.749 ± 0.2 kg/m3
- mass density (373.15 K, 14119 kPa): 671.003 ± 0.2 kg/m3
- mass density (373.15 K, 16134 kPa): 673.197 ± 0.21 kg/m3
- mass density (373.15 K, 18104 kPa): 675.276 ± 0.21 kg/m3
- mass density (373.15 K, 20078 kPa): 677.302 ± 0.21 kg/m3
- mass density (373.15 K, 22064 kPa): 679.286 ± 0.21 kg/m3
- mass density (373.15 K, 23988 kPa): 681.158 ± 0.21 kg/m3
- mass density (373.15 K, 26124 kPa): 683.184 ± 0.21 kg/m3
- mass density (373.15 K, 28010 kPa): 684.93 ± 0.21 kg/m3
- mass density (373.15 K, 29905 kPa): 686.647 ± 0.21 kg/m3
